Assay results taken from ChEMBL document CHEMBL5244235, “Diarylpentanoids with antitumor activity: A critical review of structure-activity relationship studies” (Eur J Med Chem, 2020).

Key:
[1] = Antiproliferative activity against human Molt 4/C8 cells assessed as cell growth inhibition; format: functional, cell-based; details: Molt4/C8
[2] = test system: P388; experiment: Antiproliferative activity against mouse P388 cells assessed as cell growth inhibition; format: functional, cell-based
[3] = test system: CCRF-CEM; experiment: Antiproliferative activity against human CEM cells assessed as cell growth inhibition; format: functional, cell-based
[4] = test system: L1210; experiment: Antiproliferative activity against mouse L1210 cells assessed as cell growth inhibition; format: functional, cell-based
[5] = test system: MDA-MB-231; experiment: Growth inhibition of human MDA-MB-231 cells measured after 72 hrs by microplate reader analysis; format: functional
[6] = test system: RPMI-7951; experiment: Growth inhibition of human RPMI-7951 cells measured after 72 hrs by microplate reader analysis; format: functional, cell-based; details: RPMI-7951, time 72 hrs
[7] = test system: HuCCT-1; experiment: Antiproliferative activity against human HuCCT-1 cells assessed as cell growth inhibition measured after 72 hrs; format: functional, cell-based; details: HuCCT-1, 72 h
[8] = test system: ACHN; experiment: Antiproliferative activity against human ACHN cells assessed as cell growth inhibition measured after 72 hrs; format: functional, cell-based
[9] = test system: 8505C; experiment: Antiproliferative activity against human 8505C cells assessed as cell growth inhibition measured after 72 hrs; format: functional, cell-based
[10] = test system: HCT-116; experiment: Antiproliferative activity against human HCT-116 cells assessed as cell growth inhibition measured after 72 hrs; format: functional, cell-based; details: HCT-116, 72 h
[11] = test system: Huh-7; experiment: Antiproliferative activity against human Huh-7 cells assessed as cell growth inhibition measured after 72 hrs; format: functional, cell-based; details: Huh-7, 72 h
[12] = Antiproliferative activity against human OVK18 cells assessed as cell growth inhibition measured after 72 hrs; format: functional, cell-based; details: OVK18, 72 h
[13] = test system: PC-3; experiment: Antiproliferative activity against human PC-3 cells assessed as cell growth inhibition measured after 72 hrs; format: functional, cell-based; details: PC-3, 72 h
[14] = Antiproliferative activity against human SH-10-TC cells assessed as cell growth inhibition measured after 72 hrs; format: functional, cell-based
[15] = test system: A-431; experiment: Antiproliferative activity against human A-431 cells assessed as cell growth inhibition measured after 72 hrs; format: functional, cell-based; details: A-431, 72 h
[16] = test system: DLD-1; experiment: Antiproliferative activity against human DLD-1 cells assessed as cell growth inhibition measured after 72 hrs; format: functional, cell-based; details: DLD-1, 72 h
[17] = test system: MCF7; experiment: Antiproliferative activity against human MCF7 cells assessed as cell growth inhibition measured after 72 hrs; format: functional, cell-based; details: MCF7, 72 h
[18] = test system: GCIY; experiment: Antiproliferative activity against human GCIY cells assessed as cell growth inhibition measured after 72 hrs; format: functional, cell-based
[19] = Antiproliferative activity against human PK-1 cells assessed as cell growth inhibition measured after 72 hrs; format: functional, cell-based; details: PK-1, 72 h
[20] = test system: A549; experiment: Antiproliferative activity against human A549 cells assessed as cell growth inhibition measured after 72 hrs; format: functional, cell-based; details: A549, 72 h
[21] = test system: G-361; experiment: Antiproliferative activity against human G-361 cells assessed as cell growth inhibition measured after 72 hrs; format: functional, cell-based; details: G-361, 72 h

Row | SMILES | IC50 [2] [nM] | IC50 [3] [nM] | IC50 [4] [nM] | IC50 [1] [nM] | also measured
1 | COc1ccc(/C=C2\CNC/C(=C\c3ccc(OC)cc3)C2=O)cc1 | 810 | 810 | 810 | 810 | 
2 | C=CC(=O)N1C/C(=C\c2ccc(Cl)cc2)C(=O)/C(=C/c2ccc(Cl)cc2)C1 | 280 | 280 | 280 | 280 | 
3 | C=CC(=O)N1C/C(=C\c2ccc(OC)cc2)C(=O)/C(=C/c2ccc(OC)cc2)C1 | 280 | 280 | 280 | 280 | 
4 | C=CC(=O)N1C/C(=C\c2ccccc2)C(=O)/C(=C/c2ccccc2)C1 | 280 | 280 | 280 | 280 | 
5 | C=CC(=O)N1C/C(=C\c2ccc([N+](=O)[O-])cc2)C(=O)/C(=C/c2ccc([N+](=O)[O-])cc2)C1 | 280 | 280 | 280 | 280 | 
6 | C=CC(=O)N1C/C(=C\c2ccc(N(C)C)cc2)C(=O)/C(=C/c2ccc(N(C)C)cc2)C1 | 280 | 280 | 280 | 280 | 
7 | CC(=O)Oc1ccccc1/C=C/C(=O)/C=C/c1ccccc1OC(C)=O |  |  |  |  | GI50 [5]: 1000 nM; GI50 [6]: 2300 nM
8 | O=C1/C(=C/c2ccc(Cl)cc2)CNC/C1=C\c1ccc(Cl)cc1 | 810 | 810 | 810 | 810 | 
9 | O=C1/C(=C/c2ccc([N+](=O)[O-])cc2)CNC/C1=C\c1ccc([N+](=O)[O-])cc1 | 810 | 810 | 810 | 810 | 
10 | O=C1/C(=C/c2ccc(F)cc2)CNC/C1=C\c1ccc(F)cc1 | 810 | 810 | 810 | 810 | 
11 | O=C1/C(=C/c2ccccc2F)COC/C1=C\c1ccccc1F |  |  |  |  | GI50 [5]: 800 nM; GI50 [6]: 800 nM
12 | COc1ccc(/C=C2\CCC/C(=C\c3ccc(OC)c(OC)c3)C2=O)cc1OC |  |  |  |  | IC50 [7]: 10000 nM; IC50 [8]: 10000 nM; IC50 [9]: 10000 nM; IC50 [10]: 10000 nM; IC50 [11]: 10000 nM; IC50 [12]: 10000 nM; IC50 [13]: 10000 nM; IC50 [14]: 10000 nM; IC50 [15]: 10000 nM; IC50 [16]: 10000 nM; IC50 [17]: 10000 nM; IC50 [18]: 10000 nM; IC50 [19]: 10000 nM; IC50 [20]: 10000 nM; IC50 [21]: 10000 nM
13 | COc1ccccc1/C=C/C(=O)/C=C/c1ccccc1OC |  |  |  |  | GI50 [5]: 1000 nM; GI50 [6]: 2300 nM
14 | Cc1ccc(C(=O)/C=C/c2ccc(C(=O)N3C/C(=C\c4ccccc4)C(=O)/C(=C/c4ccccc4)C3)cc2)cc1C | 221 | 1610 | 5340 | 1600 | 
15 | O=C1/C(=C/c2ccccc2)CN(C(=O)/C=C/c2ccc3c(c2)OCO3)C/C1=C\c1ccccc1 | 221 | 1610 | 5340 | 1600 | 

Further lines, with some results ahead:

Row | IC50 [2] [nM] | IC50 [3] [nM] | IC50 [4] [nM] | SMILES | IC50 [1] [nM] | also measured
16 | 280 | 280 | 280 | C=CC(=O)N1C/C(=C\c2ccc(Cl)c(Cl)c2)C(=O)/C(=C/c2ccc(Cl)c(Cl)c2)C1 | 280 | 
17 | 810 | 810 | 810 | O=C1/C(=C/c2ccccc2)CNC/C1=C\c1ccccc1 | 810 | 
18 | 810 | 810 | 810 | O=C1/C(=C/c2ccc(Cl)c(Cl)c2)CNC/C1=C\c1ccc(Cl)c(Cl)c1 | 810 | 
19 | 221 | 1610 | 5340 | O=C1/C(=C/c2ccccc2)CN(C(=O)/C=C/c2ccccc2)C/C1=C\c1ccccc1 | 1600 | 
20 | 280 | 280 | 280 | C=CC(=O)N1C/C(=C\c2ccc(F)cc2)C(=O)/C(=C/c2ccc(F)cc2)C1 | 280 | 
21 | 810 | 810 | 810 | CN(C)c1ccc(/C=C2\CNC/C(=C\c3ccc(N(C)C)cc3)C2=O)cc1 | 810 | 
